Results from patent US20240174662A1, “SMALL MOLECULE INHIBITORS OF SALT INDUCIBLE KINASES” (Janssen Biotech, Inc., priority 2021, published 2024).
Where “and” joins values, the source holds several entries; their conditions need not be identical. Identical values can stand only once.

Target: SIK2 (Homo sapiens (Human), UniProt Q9H0K1)
Assay: SIK2 Enzymatic Assay Version 2 (High ATP)
Format: biochemical
Details: 3 mM ATP and 200 μM HDAC5tide final, ADP-Glo Max luminescence
In short: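 Luminescent ADP-Glo Max read-out: depletion reagent 2 h, then detection reagent 1 h. Before the reaction, compounds were incubated 30 min with enzyme added at 6 nM (twice final concentration), with all steps at room temperature.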

Sequence of SIK2 (Q9H0K1 whole entry, species assumed): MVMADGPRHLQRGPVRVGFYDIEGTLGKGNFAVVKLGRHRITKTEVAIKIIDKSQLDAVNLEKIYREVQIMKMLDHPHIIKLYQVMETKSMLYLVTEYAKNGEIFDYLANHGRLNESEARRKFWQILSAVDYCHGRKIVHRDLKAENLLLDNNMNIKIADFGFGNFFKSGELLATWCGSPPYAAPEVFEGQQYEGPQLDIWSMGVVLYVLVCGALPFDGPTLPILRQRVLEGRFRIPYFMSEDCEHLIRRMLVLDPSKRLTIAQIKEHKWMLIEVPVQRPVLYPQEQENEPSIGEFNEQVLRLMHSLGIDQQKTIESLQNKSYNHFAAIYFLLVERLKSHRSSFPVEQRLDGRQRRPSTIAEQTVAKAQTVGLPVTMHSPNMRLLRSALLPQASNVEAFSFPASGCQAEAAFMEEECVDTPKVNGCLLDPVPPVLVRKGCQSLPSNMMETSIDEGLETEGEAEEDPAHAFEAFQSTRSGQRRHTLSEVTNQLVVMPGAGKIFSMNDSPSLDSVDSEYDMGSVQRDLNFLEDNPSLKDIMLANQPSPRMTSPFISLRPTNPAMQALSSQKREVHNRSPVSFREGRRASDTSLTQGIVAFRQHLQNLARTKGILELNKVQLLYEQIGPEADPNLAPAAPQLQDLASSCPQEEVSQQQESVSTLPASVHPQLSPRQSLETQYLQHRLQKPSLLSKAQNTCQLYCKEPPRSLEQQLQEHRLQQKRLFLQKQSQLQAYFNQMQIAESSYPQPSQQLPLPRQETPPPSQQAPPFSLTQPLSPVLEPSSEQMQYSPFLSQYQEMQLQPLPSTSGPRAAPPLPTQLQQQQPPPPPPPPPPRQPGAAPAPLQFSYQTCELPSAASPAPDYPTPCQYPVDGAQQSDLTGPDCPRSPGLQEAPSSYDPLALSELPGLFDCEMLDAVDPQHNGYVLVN

Row | IC50 | SMILES
1 | 355 nM | Cc1onc(OC[C@@H]2CCCCN2C)c1-c1ccn2nc(NC(=O)C3CC3)cc2c1 [Example 501, N-[5-[5-methyl-3-[[(2S)-1-methyl-2-piperidyl]methoxy]isoxazol-4-yl]pyrazolo[1,5-a]pyridin-2-yl]cyclopropanecarboxamide]
2 | 183 nM | COCCN1CCC[C@@H]1COc1cnn(C)c1-c1ccn2nc(NC(=O)C3CC3)cc2c1 [Example 428, N-[5-[4-[[(2R)-1-(2-methoxyethyl)pyrrolidin-2-yl]methoxy]-2-methyl-pyrazol-3-yl]pyrazolo[1,5-a]pyridin-2-yl]cyclopropanecarboxamide]
3 | 1.4 nM | CCN1CCC[C@@H]1COc1cnn(C)c1-c1ccn2nc(Nc3cc(C)nc(C)n3)cc2c1 [Example 289, N-(2,6-dimethylpyrimidin-4-yl)-5-[4-[[(2R)-1-ethylpyrrolidin-2-yl]methoxy]-2-methyl-pyrazol-3-yl]pyrazolo[1,5-a]pyridin-2-amine]
4 | 98.3 nM | CN1CC(F)(COc2cnn(C)c2-c2ccn3nc(NC(=O)C4CC4)cc3c2)C1 [Example 405, N-[5-[4-[(3-fluoro-1-methyl-azetidin-3-yl)methoxy]-2-methyl-pyrazol-3-yl]pyrazolo[1,5-a]pyridin-2-yl]cyclopropanecarboxamide]
5 | 78.9 nM | Cc1cc(Nc2cc3cc(-c4c(O[C@@H]5COC[C@@H]5C)cnn4C)ccn3n2)nc(C)n1 (single isomer, unassigned) [Example 445, (3*S,4*S)—N-(2,6-dimethylpyrimidin-4-yl)-5-[2-methyl-4-(4-methyltetrahydrofuran-3-yl)oxy-pyrazol-3-yl]pyrazolo[1,5-a]pyridin-2-amine]
6 | 68.5 nM | CN1CC[C@H](Oc2cnn(C)c2-c2ccn3nc(Nc4ccc(C(F)(F)F)cn4)cc3c2)C1 [Example 339, 5-[2-methyl-4-[(3S)-1-methylpyrrolidin-3-yl]oxy-pyrazol-3-yl]-N-[5-(trifluoromethyl)-2-pyridyl]pyrazolo[1,5-a]pyridin-2-amine]
7 | 69.7 nM | Cc1cc(Nc2cc3cc(-c4c(OC[C@]5(C)CCCO5)cnn4C)ccn3n2)nc(C)n1 (single isomer, unassigned) [Example 447, (*S)—N-(2,6-dimethylpyrimidin-4-yl)-5-[2-methyl-4-[(2-methyltetrahydrofuran-2-yl)methoxy]pyrazol-3-yl]pyrazolo[1,5-a]pyridin-2-amine]
8 | 13600 nM | CN1CC[C@@H](COc2cnn(CC3CC3)c2-c2ccn3nc(NC(=O)C4CC4)cc3c2)C1 [Example 489, N-[5-[2-(cyclopropylmethyl)-4-[[(3R)-1-methylpyrrolidin-3-yl]methoxy]pyrazol-3-yl]pyrazolo[1,5-a]pyridin-2-yl]cyclopropanecarboxamide]
9 | 74.9 nM | Cn1ncc(CO[C@H]2CNCC2(F)F)c1-c1ccn2nc(NC(=O)C3CC3)cc2c1 (single isomer, unassigned) [Example 465, (*S)—N-[5-[4-[(4,4-difluoropyrrolidin-3-yl)oxymethyl]-2-methyl-pyrazol-3-yl]pyrazolo[1,5-a]pyridin-2-yl]cyclopropanecarboxamide]
10 | 60 nM | Cc1onc(OC[C@](C)(N)c2ccccc2)c1-c1ccn2nc(NC(=O)C3CC3)cc2c1 [Example 326, N-[5-[3-[(2R)-2-amino-2-phenyl-propoxy]-5-methyl-isoxazol-4-yl]pyrazolo[1,5-a]pyridin-2-yl]cyclopropanecarboxamide]
11 | 92.4 nM | Cn1ncc(OCC2(N)COC2)c1-c1ccn2nc(NC(=O)C3CC3)cc2c1 [Example 402, N-[5-[4-[(3-aminooxetan-3-yl)methoxy]-2-methyl-pyrazol-3-yl]pyrazolo[1,5-a]pyridin-2-yl]cyclopropanecarboxamide]
12 | 14.1 nM | Cn1ncc(OC[C@H]2CCN2CC(F)(F)F)c1-c1ccn2nc(NC(=O)C3CC3)cc2c1 [Example 315, N-[5-[2-methyl-4-[[(2R)-1-(2,2,2-trifluoroethyl)azetidin-2-yl]methoxy]pyrazol-3-yl]pyrazolo[1,5-a]pyridin-2-yl]cyclopropanecarboxamide]
13 | 59.1 nM | Cc1cc(Nc2cc3cc(-c4c(OC[C@H](O)C5(C)CC5)cnn4C)ccn3n2)nc(C)n1 (single isomer, unassigned) [Example 356, (1*R)-2-[5-[2-[(2,6-dimethylpyrimidin-4-yl)amino]pyrazolo[1,5-a]pyridin-5-yl]-1-methyl-pyrazol-4-yl]oxy-1-(1-methylcyclopropyl)ethanol]
14 | 350 nM | Cn1ncc(OCC2(N)CC2)c1-c1ccn2nc(NC(=O)C3CC3)cc2c1 [Example 506, N-[5-[4-[(1-aminocyclopropyl)methoxy]-2-methyl-pyrazol-3-yl]pyrazolo[1,5-a]pyridin-2-yl]cyclopropanecarboxamide]
15 | 2 nM | Cc1cc(Nc2cc3cc(-c4c(CO[C@@H]5CN(C)C[C@@H]5C)cnn4C)ccn3n2)nc(C)n1 (stereo in doubt) [Example 369, CIS—*S, *S—N-(2,6-dimethylpyrimidin-4-yl)-5-[4-[(1,4-dimethylpyrrolidin-3-yl)oxymethyl]-2-methyl-pyrazol-3-yl]pyrazolo[1,5-a]pyridin-2-amine]

Continued, compound first:

Row | SMILES | IC50
16 | C[C@@H]1CNC[C@@H]1Oc1cnn(C)c1-c1ccn2nc(NC(=O)C3CC3)cc2c1 (single isomer, unassigned) [Example 238, (3*R, 4*R)—N-[5-[2-methyl-4-(4-methylpyrrolidin-3-yl)oxy-pyrazol-3-yl]pyrazolo[1,5-a]pyridin-2-yl]cyclopropanecarboxamide] | 34.8 nM
17 | Cc1cc(Nc2cc3cc(-c4c(OC[C@H]5CCN5CCF)cnn4C)ccn3n2)ncn1 [Example 277, 5-[4-[[(2R)-1-(2-fluoroethyl)azetidin-2-yl]methoxy]-2-methyl-pyrazol-3-yl]-N-(6-methylpyrimidin-4-yl)pyrazolo[1,5-a]pyridin-2-amine] | 1.4 nM
18 | [2H]C([2H])([2H])n1ncc(OC[C@H]2CCN2C)c1-c1ccn2nc(Nc3cc(C)nc(C)n3)cc2c1 [Example 131, N-(2,6-dimethylpyrimidin-4-yl)-5-[4-[[(2R)-1-methylazetidin-2-yl]methoxy]-2-(trideuteriomethyl)pyrazol-3-yl]pyrazolo[1,5-a]pyridin-2-amine] | < 0.847 nM
19 | CC[C@@H]1CN(C)[C@@H]1COc1cnn(C)c1-c1ccn2nc(NC(=O)C3CC3)cc2c1 [Example 11, N-[5-[4-[[(2S,3R)-3-ethyl-1-methyl-azetidin-2-yl]methoxy]-2-methyl-pyrazol-3-yl]pyrazolo[1,5-a]pyridin-2-yl]cyclopropanecarboxamide] | 117 nM
20 | CCC1(OCc2cnn(C)c2-c2ccn3nc(NC(=O)C4CC4)cc3c2)CNC1 [Example 193, N-[5-[4-[(3-ethylazetidin-3-yl)oxymethyl]-2-methyl-pyrazol-3-yl]pyrazolo[1,5-a]pyridin-2-yl]cyclopropanecarboxamide] | 21.2 nM
21 | Cn1ncc(OC[C@@H](N)C(C)(C)C)c1-c1ccn2nc(NC(=O)C3CC3)cc2c1 [Example 348, N-[5-[4-[(2S)-2-amino-3,3-dimethyl-butoxy]-2-methyl-pyrazol-3-yl]pyrazolo[1,5-a]pyridin-2-yl]cyclopropanecarboxamide] | 55.3 nM
22 | Cc1cc(Nc2cc3cc(-c4c(OC[C@H]5CCN5C)cnn4C)ccn3n2)nc(CC2CC2)n1 [Example 153, N-[2-(cyclopropylmethyl)-6-methyl-pyrimidin-4-yl]-5-[2-methyl-4-[[(2R)-1-methylazetidin-2-yl]methoxy]pyrazol-3-yl]pyrazolo[1,5-a]pyridin-2-amine] | < 0.847 nM
23 | CCN1CC[C@@H]1COc1cnn(C)c1-c1ccn2nc(Nc3cc(C)nc(OC)n3)cc2c1 [Example 173, 5-[4-[[(2R)-1-ethylazetidin-2-yl]methoxy]-2-methyl-pyrazol-3-yl]-N-(2-methoxy-6-methyl-pyrimidin-4-yl)pyrazolo[1,5-a]pyridin-2-amine] | < 0.847 nM
24 | C[C@H]1CNC[C@H]1OCc1cnn(C)c1-c1ccn2nc(NC(=O)C3CC3)cc2c1 (single isomer, unassigned) [Example 194, (3*S,4*S)—N-[5-[2-methyl-4-[(4-methylpyrrolidin-3-yl)oxymethyl]pyrazol-3-yl]pyrazolo[1,5-a]pyridin-2-yl]cyclopropanecarboxamide] | 4.7 nM
25 | Cc1cc(Nc2cc3cc(-c4c(OC[C@H]5CCN5C)noc4C)ccn3n2)nc(C)n1 [Example 91, N-(2,6-dimethylpyrimidin-4-yl)-5-[5-methyl-3-[[(2R)-1-methylazetidin-2-yl]methoxy]isoxazol-4-yl]pyrazolo[1,5-a]pyridin-2-amine] | 6.4 nM
26 | Cc1onc(OC[C@@]23CN[C@@H](CO2)C3)c1-c1ccn2nc(NC(=O)C3CC3)cc2c1 [Example 201, N-[5-[5-methyl-3-[[(1R,4R)-5-oxa-2-azabicyclo[2.2.1]heptan-4-yl]methoxy]isoxazol-4-yl]pyrazolo[1,5-a]pyridin-2-yl]cyclopropanecarboxamide] | 42.1 nM
27 | Cc1cc(Nc2cc3cc(-c4c(OC[C@H]5CCN5C)cnn4C)ccn3n2)nc(C(=O)N(C)C)n1 [Example 110, N,N,4-trimethyl-6-[[5-[2-methyl-4-[[(2R)-1-methylazetidin-2-yl]methoxy]pyrazol-3-yl]pyrazolo[1,5-a]pyridin-2-yl]amino]pyrimidine-2-carboxamide] | 2.8 nM
28 | CNC(=O)c1cc(Nc2cc3cc(-c4c(OC[C@H]5CCN5C)cnn4C)ccn3n2)nc(C)n1 [Example 120, N,2-dimethyl-6-[[5-[2-methyl-4-[[(2R)-1-methylazetidin-2-yl]methoxy]pyrazol-3-yl]pyrazolo[1,5-a]pyridin-2-yl]amino]pyrimidine-4-carboxamide] | 23.7 nM
29 | CCN1CC[C@@H]1COc1cnn(C)c1-c1ccn2nc(Nc3cnc(C(F)(F)F)cn3)cc2c1 [Example 160, 5-[4-[[(2R)-1-ethylazetidin-2-yl]methoxy]-2-methyl-pyrazol-3-yl]-N-[5-(trifluoromethyl)pyrazin-2-yl]pyrazolo[1,5-a]pyridin-2-amine] | 2.5 nM and 3.6 nM
